Results: patent US20220162240A1, “MITOCHONDRIA-TARGETED ISOKETAL/ISOLEVUGLANDIN SCAVENGERS” (Vanderbilt University, priority 2019, published 2022)
Entries after “also recorded” stand apart in the source; their conditions may differ.

Key:
[1] = tested on: human aortic endothelial cells (HAEC); assay: Cardiolipin oxidation in HAEC incubated with Ang II plus TNFα (LC/MS); assay type: cell-based; conditions: 50 nM, Ang II + TNFα 24 hours
Method: (§1) Free radical oxidation of arachidonic acid produces highly reactive isolevuglandins (isoLG) which causes mitochondrial dysfunction by opening of the mitochondrial permeability transition pore (mPTP). […] The functional role of mitochondrial isoLG was tested in vivo using angiotensin II model of hypertension. C57Bl/6J mice were infused with angiotensin II (0.7 mg/kg/day) or saline (Sham) and received mito2HOBA in the drinking water (0.1 g/L). […] Decrease of NO is a hallmark of endothelial dysfunction in hypertension due to vascular oxidative stress.
(§2) Mitochondrial O2^• and cardiolipin oxidation (specific marker of mitochondrial dysfunction and oxidative stress) in cultured human aortic endothelial cells (HAEC) were incubated with Ang II and TNFα.

[2] = tested on: human aortic endothelial cells (HAEC); assay: Mitochondrial superoxide in HAEC incubated with Ang II plus TNFα (MitoSOX/HPLC); assay type: cell-based
Method: as §1, §2

[3] = tested on: hypertension; conditions: background statement; cited from earlier work
[4] = tested on: Ang II-infused C57Bl/6J mice; assay: Blood pressure (tail-cuff) in Ang II-induced hypertension, CypD blocker given after onset; assay type: in vivo; conditions: i.p. 10 mg/kg/day after onset of Ang II-induced hypertension
Method: (§3) FIG. 3A-3D is a set of graphs showing examples of targeting CypD in hypertension. Blood pressure in C57Bl/6J mice infused with saline (Sham), Ang II (0.7 mg/kg/day) or treated with CypD blocker Sanglifehrin A (SFA) after onset of Ang II-induced hypertension (Ang II+SFA). Blood pressure was measured by tail-cuff method (A). ^3Following 14 days of saline or Ang II infusion, mice were sacrificed for isolation of aorta to study mitochondrial […] using MitoSOX and HPLC or to study vasodilation. Results are mean±SEM (n=6-8). *P<0.01 vs Sham, **P<0.01 vs Ang II, ***P<0.01 vs Ang II+SFA (n=8).
(§4) One aspect of the present invention is targeting CypD after onset of hypertension. The present inventors implanted wild-type mice with osmotic pump containing Ang II (0.7 mg/kg/day) and started treatment with Sanglifehrin A after onset of Ang II-induced hypertension (FIG. 3A).

[5] = tested on: aorta; assay: Vasodilatation of aorta from Ang II-infused mice treated with CypD blocker; assay type: in vivo; conditions: i.p. 10 mg/kg/day after onset of Ang II-induced hypertension
Method: as §3, §4

[6] = tested on: mitochondrial superoxide; assay: Aortic mitochondrial superoxide (MitoSOX/HPLC) in Ang II-infused mice treated with CypD blocker; assay type: in vivo; conditions: i.p. 10 mg/kg/day after onset of Ang II-induced hypertension
Method: as §3, §4

[7] = tested on: intact mouse kidney mitochondria; assay: Swelling and respiration of isolated mouse kidney mitochondria after acute isoLG or isoLG-PE exposure; conditions: for mPTP opening / mitochondrial swelling / inhibition of mitochondrial respiration: 1 μM; for inhibition of mitochondrial respiration: acute treatment of isolated mitochondria, 5 min, glutamate and malate, ADP 50 μM
Method: Intact mouse kidney mitochondria with glutamate and malate were incubated (5 min) with ethanol as vehicle, isoLG (1 μM) or isoLG-PE (1 μM) prior to addition of ADP (50 μM) and measurements of oxygen consumption. *P<0.001 vs Control, **P<0.03 vs isoLG.
Reactive isoLG produce protein-Lysine adducts and cytotoxic isoLG-phosphatidylethanolamine adduct (isoLG-PE) which can independently contribute to mitochondrial dysfunction. Indeed, acute treatment of isolated mitochondria with isoLG-PE inhibited respiration by 41% while similar dose of isoLG reduced respiration by 74% which support potential role of both isoLG-PE and isoLG protein-Lysine adducts in mitochondrial dysfunction.

[8] = acute exposure of isolated mitochondria

NCc1ccccc1O [2HOBA, 2-hydroxybenzylamine, reference compound]
cardiolipin oxidation [1]: not effective
mitochondrial superoxide production / mitochondrial oxidative stress ([2]; 50 nM, Ang II + TNFα 24 hours, MitoSOX/HPLC): not effective
concentration required for protection similar to mito2HOBA (50 nM) against mitochondrial oxidative stress ([2]; Ang II + TNFα): much higher concentrations
endothelium-dependent relaxation in animal studies [3]: protects endothelium-dependent relaxation
hypertension in animal studies [3]: attenuates hypertension
inflammation in animal studies [3]: prevents inflammation

CC[C@H]1C[C@H](C)[C@@]2(NC1=O)O[C@@H](C[C@H](O)[C@@H](C)CC/C=C/C=C(\C)[C@@H]1C/C=C/C=C/[C@H](O)[C@H](C)[C@@H](O)[C@@H](CCC(C)=O)C(=O)N[C@@H](C(C)C)C(=O)N[C@@H](Cc3cccc(O)c3)C(=O)N3CCC[C@H](N3)C(=O)O1)[C@H](C)[C@H](O)[C@@H]2C [Sanglifehrin A]
blood pressure [4]: reduces blood pressure
vasodilatation [5]: improves vasodilatation
mitochondrial superoxide production in aorta [6]: normalizes

isoLG-phosphatidylethanolamine adduct [isoLG-PE]
mPTP opening / mitochondrial swelling [7, 8]: mitochondrial swelling
inhibition of mitochondrial respiration [7]: 41%

isolevuglandins [isoLG]
mitochondrial respiration [7, 8]: inhibits mitochondrial respiration
mPTP opening / mitochondrial swelling [7, 8]: induces CypD-dependent mPTP opening; also recorded: mitochondrial swelling
inhibition of mitochondrial respiration [7]: 74%
